Literature values, collected in PMC4781755 (Biochemistry, 2015).

Experiments:
[1] = system: vcINDY
[2] = system: hNaDC3; conditions: read-out: Km for succinate, hNaDC3
[3] = system: hNaDC1; conditions: read-out: Km for succinate, hNaDC1

SMILES	inhibition of vcINDY [1]	Km [2]	Km [3]
O=C(O)CC(O)(CC(=O)O)C(=O)O [citrate]	weak inhibitor	–	–
O=C(O)CCC(=O)O [succinate]	–	~20 µM	500 µM
